From US20110131683A1, “Polypeptide Inducing Dwarfism of Plants, Polynucleotide Coding the Polypeptide, and Those Use” (GENOMINE, INC., priority 2007, published 2011)

Assays:
Assay type in all cases: in vivo, Arabidopsis thaliana
[1] = system: SEN::AtGA2ox4-9 and SEN::AtGA2ox4-10 dwarfism lines; assay: Phenotype recovery of SEN::AtGA2ox4 mutant by treatment with GA3
Experimental: In order to examine whether the AtGA2ox4 gene is actually involved in gibberellin catabolism, the SEN::AtGA2ox4-9 and the SEN::AtGA2ox4-10 line, both showing dwarfism phenotypes, were grown for 30 days while 10^−4 M GA3 (Sigma, USA) was applied twice at intervals of one week starting from 12 days after germination. Treatment with the active gibberellin GA3 may recover the phenotype of the dwarfism-induced mutant in which gibberellin insufficiency was caused by the overexpression of the AtGA2ox4 gene, to that of the wild-type. Comparisons were made between the mutants treated with or without GA3 (FIGS. 10, 11 and 12). […] This was true of GA3-treated mutants. These facts allow an inference that the gene of the present invention plays an important role in dwarfism induction in plants, but is not involved in the control of flowering time.

[2] = system: AtGA20ox1, AtGA20ox2 and AtGA3ox1 expression; assay: RT-PCR expression of gibberellin biosynthesis-related genes in SEN::AtGA2ox4 mutant; settings: FIG. 9
Experimental: Genes associated with GA 2-oxidase activity, flowering and a feedback mechanism of the gibberellin metabolism in the SEN::AtGA2ox4 mutant with a dwarfism phenotype were analyzed for expression patterns. In this regard, total RNA was isolated from flowers, roots, stems, leaves and siliques of the wild-type Arabidopsis thaliana and the SEN::AtGA2ox4 mutant, both grown for 30 days after germination, with the aid of RNasey Plant Mini Kit (QIAGEN, Germany). cDNA was synthesized from 1 μg of each RNA using Superscript III Reverse Transcriptase (INVITROGEN, USA) under the conditions of 65° C., 5 min; 50° C., 60 min; and 70° C., 15 min. Then, PCR was performed using the synthesized cDNAs as templates in the presence of the primers, specific for GA 2-oxidase and flowering genes, listed in Table 1, below. The PCR was initiated by denaturing the template DNA at 94° C. for 2 min and performed with 30 cycles of 94° C., 1 min; 55° C., 1.5 min; and 72° C., 1 min, followed by extension at 72° C. for 15 min. […]
An examination was made about whether the gene of the present invention is involved in the feedback mechanism of the gibberellin metabolism and thus in gibberellin catabolism. For this, AtGA20ox1 and AtGA20ox2, both coding for GA20-oxidase, and AtGA3ox1 coding for GA3-oxidase were analyzed for expression levels in the SEN::AtGA2ox4 mutant. […]

[3] = system: proteins up-regulated by AtGA2ox4 overexpression; assay: Two-dimensional electrophoresis of proteins of SEN::AtGA2ox4 mutant; settings: SEN::AtGA2ox4 mutant grown 30 days, 2-D electrophoresis, Table 2
Experimental: Proteins were isolated from the wild-type Arabidopsis thaliana (FIG. 13), the SEN::AtGA2ox4 mutant (FIG. 14), and the GA3-treated SEN::AtGA2ox4 mutant (FIG. 15), all grown for 30 days after germination, and analyzed for expression pattern by two-dimensional electrophoresis. Protein isolation for each plant was conducted as follows. Each plant was mashed in 10 volumes of a reagent comprising 7M urea, 2M thiourea, 4% (w/v) 3-[(3-cholamidopropy)dimethyammonio]-1-propanesulfonate (CHAPS), 1% (w/v) dithiothreitol (DTT), 2% (v/v) pharmalyte and 1 mM benzamidine, followed by heating at 100° C. for 10 min. After centrifugation at 15,000 rpm for 1 hour, the supernatant was used as a sample for two-dimensional electrophoresis. Protein quantities were determined using the Bradford method (Bradford et al., 1976). For primary isoelectric focusing (IEF), IPG strips were soaked at room temperature for 12-16 hrs in a reswelling solution comprising 7M urea, 2M thiourea, 2% 3-[(3-cholamidopropy)dimethylammonio]-1-propanesulfonate (CHAPS), 1% dithiothreitol (DTT) and 1% pharmalyte. Each protein sample was used in the amount of 200 μg per strip. […] The protein spots were quantified to examine a change in expression level by the analysis of the scanned images using the PDQuest software (version 7.0, BioRad). The quantity of each spot was normalized according to the total intensity of valid spots. […]

`C=C1C[C@]23C[C@@]1(O)CC[C@H]2[C@@]12C=C[C@H](O)[C@@](C)(C(=O)O1)[C@H]2[C@@H]3C(=O)O` [GA3] was tested, and the “phenotype of dwarfism-induced mutant lines after GA3 treatment” value ([1]; 10^-4 M GA3 applied twice at intervals of one week starting 12 days after germination, grown 30 days, SEN::AtGA2ox4-9 and -10 lines) was “recovered almost perfectly to the wild-type phenotype”, the “flowering time of GA3-treated mutants versus wild-type” value ([1]; GA3-treated SEN::AtGA2ox4 mutants) was “not different in flowering time from the wild-type” and the “expression levels of AtGA20ox1, AtGA20ox2 and AtGA3ox1 after GA3 treatment” value [2] was “return the expression levels to those of the wild-type”. The “proteins up-regulated by AtGA2ox4 overexpression, after GA3 treatment” value [3] was “recovered to the phenotype of the wild-type”.
